Reference: patent US7348140B1, “Clinical indications for genotyping polymorphic variants of G-protein coupled receptors” (Acadia Pharmaceuticals, Inc., priority 2001, dated 2008)
Positions count from the first letter of the chain named. Where “and” joins values, the source holds several entries; their conditions need not be identical. Identical values can stand only once. Counter-ions that a name gives are not always drawn. Like-named read-outs stand apart in the source and are kept apart here. One block for each compound: values may come before it.

Assays:
[1] = target: serotonin 7 receptor (Leucine 421) (Homo sapiens, UniProt P34969); assay: R-SAT functional assay, serotonin 7 receptor wild type; type: cell-based; conditions: Leucine 421 (wild type), inverse agonists, Table 20; for EC50: read-out: Ave −Log EC50 (converted)
[2] = target: serotonin 7 receptor L421P (Proline 421) (Homo sapiens, UniProt P34969, L421P); assay: R-SAT functional assay, serotonin 7 receptor L421P; type: cell-based; conditions: Table 20; for EC50: read-out: Ave −Log EC50 (converted); for FOLD: shift in functional potency, Proline 421 vs Leucine 421
[3] = target: Neuropeptide Y1 receptor, wild type (Histidine 298) (UniProt P25929); assay: cell-based or functional assay
[4] = target: T1, alpha 1A/C receptor G43C (Cysteine 43) (Homo sapiens, UniProt P35348, C347R/G43C/Q431E); assay: R-SAT functional assay, alpha 1A/C receptor G43C; type: cell-based; conditions: Table 1
T1 construct: expressed in transfected cells; host or cells: NIH-3T3

[5] = target: T2, alpha 1A/C receptor I200S (Serine 200) (Homo sapiens, UniProt P35348, C347R/I200S/Q431E); assay: R-SAT functional assay, alpha 1A/C receptor I200S; type: cell-based; conditions: Table 2; for EC50: Serine 200 (I200S), read-out: Ave −Log EC50 (converted); for FOLD: shift in functional potency, Serine 200 vs Isoleucine 200
T2 construct: expressed in transfected cells; host or cells: NIH-3T3
T2 sequence (P35348 1-464 I200S/C347R/Q431E): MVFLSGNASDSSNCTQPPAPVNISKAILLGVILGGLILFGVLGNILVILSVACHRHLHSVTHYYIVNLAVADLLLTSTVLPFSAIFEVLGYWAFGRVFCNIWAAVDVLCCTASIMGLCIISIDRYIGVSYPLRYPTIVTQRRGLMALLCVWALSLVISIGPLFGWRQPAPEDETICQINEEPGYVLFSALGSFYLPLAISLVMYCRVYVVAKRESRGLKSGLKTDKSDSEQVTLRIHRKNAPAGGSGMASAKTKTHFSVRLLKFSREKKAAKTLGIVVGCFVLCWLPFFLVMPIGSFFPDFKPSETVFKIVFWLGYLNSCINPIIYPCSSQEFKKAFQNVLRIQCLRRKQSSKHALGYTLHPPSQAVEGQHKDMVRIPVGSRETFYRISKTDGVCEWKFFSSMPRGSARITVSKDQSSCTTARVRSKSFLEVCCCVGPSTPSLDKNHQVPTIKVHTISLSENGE

[6] = target: T3, alpha 1A/C receptor (Glycine 43 / Isoleucine 200) (Homo sapiens, UniProt P35348, C347R/Q431E); assay: R-SAT functional assay, alpha 1A/C receptor wild type; type: cell-based; conditions: read-out: Ave −Log EC50 (converted)
T3 construct: expressed in transfected cells; host or cells: NIH-3T3
T3 sequence (P35348 1-464 C347R/Q431E): T2 sequence (P35348 1-464 I200S/C347R/Q431E) with S200I

[7] = target: T4, cholecystokinin B receptor L224Q (Glutamine 224) (Homo sapiens, UniProt P32239, E288K/L224Q); assay: R-SAT functional assay, cholecystokinin B receptor L224Q; type: cell-based
T4 construct: expressed in transfected cells; host or cells: NIH-3T3

[8] = target: serotonin 2B receptor R388W (Tryptophan 388) (Homo sapiens, UniProt P41595, R388W); assay: cell-based
[9] = target: T5, dopamine D2 receptor L40R (Arginine 40) (Homo sapiens, UniProt P14416, L40R); assay: R-SAT functional assay, dopamine D2 receptor L40R; type: cell-based
T5 construct: expressed in transfected cells; host or cells: NIH-3T3

[10] = target: serotonin 2B receptor (Arginine 388) (Homo sapiens, UniProt P41595); assay: cell-based
[11] = target: dopamine D2 receptor (Leucine 40 / Valine 208) (Homo sapiens, UniProt P14416); assay: R-SAT functional assay, dopamine D2 receptor wild type; type: cell-based
[12] = target: T6, dopamine D2 receptor V208L (Leucine 208) (Homo sapiens, UniProt P14416, V208L); assay: R-SAT functional assay, dopamine D2 receptor V208L; type: cell-based
T6 construct: expressed in transfected cells; host or cells: NIH-3T3

[13] = target: T7, thromboxane receptor E94V (Valine 94) (Homo sapiens, UniProt P21731, E94V); assay: R-SAT functional assay, thromboxane receptor E94V; type: cell-based; conditions: shift in functional potency, Valine 94 vs Glutamine 94; Table 27
T7 construct: expressed in transfected cells; host or cells: NIH-3T3

[14] = target: T8, thromboxane receptor V176E (Glutamic Acid 176) (Homo sapiens, UniProt P21731, V176E); assay: R-SAT functional assay, thromboxane receptor V176E; type: cell-based; conditions: shift in functional potency, Glutamic Acid 176 vs Valine 176
T8 construct: expressed in transfected cells; host or cells: NIH-3T3

[15] = target: T9, thromboxane receptor V80E (Glutamic Acid 80) (Homo sapiens, UniProt P21731, V80E); assay: R-SAT functional assay, thromboxane receptor V80E; type: cell-based; conditions: shift in functional potency, Glutamic Acid 80 vs Valine 80; Table 26
T9 construct: expressed in transfected cells; host or cells: NIH-3T3

[16] = target: Neuropeptide Y1 receptor H298P variant (Proline 298) (UniProt P25929); assay: cell-based or functional assay
[17] = target: dopamine D1 receptor (Threonine 37 / Proline 79 / Serine 199) (Homo sapiens, UniProt P21728); assay: R-SAT functional assay, dopamine D1 receptor wild type; type: cell-based; conditions: read-out: Ave −Log EC50 (converted)
[18] = target: T10, dopamine D1 receptor P79S (Serine 79) (Homo sapiens, UniProt P21728, P79S); assay: R-SAT functional assay, dopamine D1 receptor P79S; type: cell-based; conditions: Table 4
T10 construct: expressed in transfected cells; host or cells: NIH-3T3

[19] = target: T11, dopamine D1 receptor S199A (Alanine 199) (Homo sapiens, UniProt P21728, S199A); assay: R-SAT functional assay, dopamine D1 receptor S199A; type: cell-based; conditions: Table 5
T11 construct: expressed in transfected cells; host or cells: NIH-3T3

[20] = target: T12, dopamine D1 receptor T37P (Proline 37) (Homo sapiens, UniProt P21728, T37P); assay: R-SAT functional assay, dopamine D1 receptor T37P; type: cell-based; conditions: Table 3
T12 construct: expressed in transfected cells; host or cells: NIH-3T3

[21] = target: serotonin 1E receptor (Isoleucine 44 / Serine 262) (Homo sapiens, UniProt P28566); assay: cell-based
[22] = target: serotonin 1E receptor S262F (Phenylalanine 262) (Homo sapiens, UniProt P28566, S262F); assay: cell-based
[23] = target: serotonin 1E receptor I44T (Threonine 44) (Homo sapiens, UniProt P28566, I44T); assay: cell-based
[24] = target: T13, histamine H2 receptor K231R (Arginine 231) (Homo sapiens, UniProt P25021, K231R); assay: R-SAT functional assay, histamine H2 receptor K231R; type: cell-based
T13 construct: expressed in transfected cells; host or cells: NIH-3T3

[25] = target: histamine H2 receptor (Arginine 215 / Lysine 231) (Homo sapiens, UniProt P25021); assay: R-SAT functional assay, histamine H2 receptor wild type; type: cell-based; conditions: agonists and inverse agonists; for EC50: read-out: Ave −Log EC50 (converted)
[26] = Proline 421 (L421P), inverse agonists
[27] = Isoleucine 200 (wild type), Table 2
[28] = Arginine 215 (wild type), Table 10
[29] = Lysine 231 (wild type), Table 11

EC50 [1]: 6.92 nM
EC50 [2, 26]: 21.9 nM
FOLD [2]: 3.2 fold
Compound: CN1CCN(CC/C=C2/c3ccccc3Sc3ccc(S(=O)(=O)N(C)C)cc32)CC1 [Thiothixene]

Ave -Log EC50, R-SAT functional potency [3]: 7.5 -log EC50
Compound: Leu/Pro NPY (from UniProt P01303 29-97) (peptide)

EC50 [1]: 0.417 nM
EC50 [2, 26]: 11.2 nM
FOLD [2]: 27.0 fold
Compound: OCCN1CCN([C@@H]2C[C@@H](c3ccc(F)cc3)c3ccc(C(F)(F)F)cc32)CC1 (racemic) [Tefludazine]

EC50 ([4]; Cysteine 43 (G43C), read-out: Ave −Log EC50 (converted)): 14.5 nM
FOLD ([4]; shift in functional potency, Cysteine 43 vs Glycine 43): −3.0 fold
EC50 [5]: 47.9 nM
FOLD [5]: 3.1 fold
EC50 ([6]; Glycine 43 (wild type), Table 1): 42.7 nM
EC50 [6, 27]: 15.5 nM
Compound: c1ccc(C2CC2)c(OCC2=NCCN2)c1 [Cirazoline]

Compound: CCK-8-Sulfated
FOLD [7]: −3.0 fold

Compound: CN1C[C@H](C(=O)N[C@]2(C)O[C@@]3(O)[C@@H]4CCCN4C(=O)[C@H](Cc4ccccc4)N3C2=O)C[C@@H]2c3cccc4[nH]cc(c34)C[C@H]21 [Dihydroergotamine, dihydroergotamine]
EC50 [8]: 1.17 nM
FOLD [8]: 2.5 fold
EC50 [9]: 24.5 nM
FOLD [9]: 479 fold
EC50 [10]: 0.0933 nM
EC50 ([11]; Ave −Log EC50): 0.0513 nM and 0.269 nM
EC50 [12]: 0.0513 nM
FOLD [12]: −5.2 fold

EC50 [5]: 2140 nM
FOLD [5]: 3.9 fold
EC50 [6, 27]: 550 nM
Compound: CC(CCc1ccc(O)cc1)NCCc1ccc(O)c(O)c1 (stereo not drawn) [Dobutamine]

EC50 ([11]; Leucine 40 (wild type), Table 6, read-out: Ave −Log EC50 (converted)): 3.55 nM
EC50 ([11]; Valine 208 (wild type), Table 7, read-out: Ave −Log EC50 (converted)): 6.92 nM
EC50 ([12]; Leucine 208 (V208L), Table 7, read-out: Ave −Log EC50 (converted)): 2.14 nM
Compound: CN1C[C@@H](NS(=O)(=O)N(C)C)C[C@@H]2c3cccc4c3c(cn4C)C[C@H]21 [Mesulergine]

FOLD [13]: 3.5 fold
FOLD [14]: 13 fold
FOLD [15]: 93 fold
Compound: O=C(O)CCC/C=C\C[C@@H]1[C@@H](/C=C/[C@@H](O)COc2ccc(I)cc2)[C@H]2CC[C@@H]1O2 [I-BOP]

Ave -Log EC50, R-SAT functional potency [16]: 6.91 -log EC50
FOLD (shift in functional potency against wild type) [16]: 1070 fold
Ave -Log EC50, R-SAT functional potency [3]: 9.94 -log EC50
Compound: PEPTIDE YY (HUMAN) (from UniProt P10082 29-64)

EC50 ([10]; Arginine 388 (wild type), Table 19, read-out: Ave −Log EC50 (converted)): 39.8 nM
Compound: CNCCC=C1c2ccccc2CCc2ccccc21 [Nortryptiline]

EC50 ([17]; Proline 79 (wild type), Table 4): 34.7 nM
EC50 ([17]; Serine 199 (wild type), Table 5): 91.2 nM
EC50 ([17]; Threonine 37 (wild type), Table 3): 91.2 nM
EC50 ([18]; Serine 79 (P79S), read-out: Ave −Log EC50 (converted)): 4570 nM
FOLD ([18]; shift in functional potency, Serine 79 vs Proline 79): 132 fold
EC50 ([19]; Alanine 199 (S199A), read-out: Ave −Log EC50 (converted)): 955 nM
FOLD ([19]; shift in functional potency, Alanine 199 vs Serine 199): 11 fold
EC50 ([20]; Proline 37 (T37P), read-out: Ave −Log EC50 (converted)): 955 nM
FOLD ([20]; shift in functional potency, Proline 37 vs Threonine 37): 11 fold
Compound: CN1CCc2c(cc(O)c(O)c2Cl)C(c2ccccc2)C1 (stereo not drawn) [SKF82957, R(+)-6-Chloro-7,8-dihydroxy-3-methyl-1-phenyl-2,3,4,5-tetrahydro-1H-3-benzazapine hydrobromide]

Compound: CC(C)C[C@H]1C(=O)N2CCC[C@H]2[C@]2(O)O[C@](NC(=O)[C@@H]3C=C4c5cccc6[nH]c(Br)c(c56)C[C@H]4N(C)C3)(C(C)C)C(=O)N12 [Bromocriptine]
EC50 [9]: 47.9 nM
EC50 ([11]; Ave −Log EC50): 0.447 nM and 1.66 nM
EC50 [12]: 0.295 nM

Compound: CN1CCC(c2c[nH]c3ccc(O)cc23)CC1.O=C(O)/C=C\C(=O)O [BRL54443, 3-(1-Methylpiperidin-4-yl)-1H-indole-5-ol maleate]
Ave −Log EC50 [21]: 7.53
EC50 [21]: 29.5 nM
EC50 [22]: 174 nM
FOLD [22]: 5.9 fold
EC50 [23]: 1480 nM
FOLD [23]: 50 fold

Compound: CCK-4
FOLD [7]: −12.0 fold

Ave −Log EC50 ([24]; Arginine 231 (K231R), agonists and inverse agonists, Table 11): 7.29
Ave −Log EC50 [25, 28]: 7.81
Ave −Log EC50 [25, 29]: 7.82
Compound: ANTHAMINE

Compound: COc1ccc(C2CNC(=O)C2)cc1OC1CCCC1 (stereo not drawn) [ROLIPRAM]
EC50 [24]: 692 nM
FOLD [24]: 1.6 fold
EC50 [25, 28]: 437 nM
Ave −Log EC50 [25, 29]: 6.36

Ave −Log EC50 [1]: 8.05
Ave −Log EC50 [2, 26]: 7.61
FOLD [2]: 2.8 fold
Compound: OCCN1CCN(CC/C=C2/c3ccccc3Sc3ccc(C(F)(F)F)cc32)CC1 [Cis-flupenthixol]

EC50 [1]: 6.76 nM
EC50 [2, 26]: 38.9 nM
FOLD [2]: 5.8 fold
Compound: OCCN1CCN(CCCN2c3ccccc3Sc3ccc(C(F)(F)F)cc32)CC1 [Fluphenazine]

FOLD [13]: 6.0 fold
FOLD [14]: 5 fold
FOLD [15]: 63 fold
Compound: CCCCC[C@H](O)/C=C/[C@@H]1[C@@H](C/C=C\CCCC(=O)O)[C@H]2CO[C@@H]1C2 [U46619]

EC50 [25, 28]: 234 nM
Ave −Log EC50 [25, 29]: 6.63
Compound: CN(C)CCCSC(=N)N
